Measurements published in patent US11952328B2, “Selective ship inhibitors for treating disease” (THE RESEARCH FOUNDATION FOR THE STATE UNIVERSITY OF NEW YORK, priority 2018, dated 2024).

Tested on: RMA-Rael cells
Assay: Overall survival of RMA-Rael tumor challenged hosts (Kaplan-Meier)
Type: in vivo, mice
Description: FIGS. 6A-6I show the survival of tumor bearing mice treated with a SHIP inhibitor. […] Hosts were treated on the day of tumor challenge and the following day as in FIG. 1. The 2-day treatment course was repeated each week for the duration of survival. […] Mice received either NK cell depleting, anti-NK1.1 antibody (PK136), or isotype control antibody prior to tumor challenge (5×10^5 RMA-Rael). The hosts received SHIP inhibitor two consecutive days each week until death. […] The hosts were treated on the day of tumor challenge and the following day as in FIG. 1. The 2-day treatment course was repeated each week for the duration of survival.
The most clinically relevant endpoint in any cancer therapy study is not a measured decrease in tumor burden, but instead, a significant increase in survival promoted by the treatment.
In order to further define 3AC′s capacity to control malignancy through immunomodulatory effects the capacity of 3AC to promote resistance of NSG, TcRa^−/− and NK cell depleted hosts to RMA-Rael tumor challenge was examined. As before, mice received treatment with 3AC or vehicle for two consecutive days each week followed by a five-day cessation of treatment to prevent disarming and/or exhaustion. This treatment strategy was continued indefinitely and survival was monitored (FIG. 6A). To confirm that, in addition to the chemotherapeutic effect documented in FIG. 5, 3AC-induced enhanced-NK and -T cell activity is important for the survival benefit following tumor challenge, NSG mice (mice deficient of all lymphocyte lineages) were challenged.
To determine if T cells are required for the 3AC-mediated survival benefit, the same expirement using TcRa^−/− hosts that lack a TcR-ab^+ T cell compartment was repeated. […] To directly test the requirement for an intact NK cell compartment for 3AC-mediated increased survival after tumor challenge, the experiment as described in FIG. 6A were repeated challenging C57BL/6 hosts that were first depleted of
NK cells. Here, prior to tumor challenge, hosts were injected with either NK cell depleting anti-NK1.1 antibody (C57BL/6-DNK) or with antibody isotype control (C57BL/6-iso) (FIG. 6B).
The SHIP1 inhibitor 3AC was then tested in a genetic model in which the molecular target, SHIP1, was absent in a key target population of T cells, which are required for protection in the RMA-Rael lymphoma challenge model. […] Thus, SHIP inhibitor protection after tumor challenge is lost when the T cell compartment lacks the molecular target (SHIP1) in T cells.
There are two paralogs of SHIP: SHIP1 which is expressed in a limited range of tissues including hematopoietic cells, and SHIP2 which is expressed by a wide array of cell types. To determine if SHIP2 may also play a role in host defense against malignancy as described above tumor bearing mice were treated with small-molecule inhibitors against SHIP2 as well. […] Stem Cells. (2015); 33: 848-858; Hoekstra, E. et al., Lipid phosphatase SHIP2 functions as oncogene in colorectal cancer by regulating PKB activation. Oncotarget. (2016) 7: 73525-73540). Like 3AC, pan-SHIP1/2 inhibitors such as K118 are also cytotoxic for RMA-Rael cells in vitro. The pan SHIP1/2 inhibitory compounds K118 and K149 were compared to the SHIP1 selective compound 3AC.
Simultaneous inhibition of both SHIP1and SHIP2 may be deleterious to the immune response promoted by 3AC. […] In the study, the SHIP1 selective inhibitor 3AC that provides for protection after RMA-Rael challenge was simulataneously co-administered.

With `CC(C)CCC[C@@H](C)[C@H]1CC[C@H]2[C@@H]3CCC4C[C@H](N)CC[C@]4(C)[C@H]3CC[C@]12C` (stereo partly drawn) [Compound 3AC, 3-α-aminocholestane] the overall survival (3AC-treated NK cell depleted C57BL/6 (anti-NK1.1) vs 3AC-treated isotype control hosts) was “significantly compromised survival”, the long-term survival (C57BL/6 hosts, 1×10^5 RMA-Rael, FIG. 6H) was “long-term survival in a subset of hosts” and the “overall survival (protection)” value (C57BL/6 hosts, 1×10^5 RMA-Rael, FIG. 6H, vs vehicle) was “extended survival”. For the same compound, the overall survival (C57BL/6 hosts, 5×10^5 RMA-Rael, two consecutive days each week, five-day cessation, vs vehicle) was “significantly increased survival”, the overall survival (CD4CreSHIP flox/flox mice treated with 3AC vs vehicle-treated SHIP+/flox mice) was “comparable survival” and the median survival (NSG mice, pulsatile dosing, vs vehicle-treated NSG) was “very modest increase”. The overall survival (SHIP flox/flox mice treated with 3AC vs 3AC-treated CD4CreSHIP flox/flox and vehicle-treated SHIP+/flox) was “enhanced survival”, the overall survival (TcRa−/− hosts, pulsatile dosing, compared to 3AC treatment of C57BL/6 hosts) was “did not prolong survival” and the long term survival (subpopulation of 3AC treated C57BL/6 mice, pulsatile dosing, tumor uniformly lethal in vehicle mice) was “durable, long term survival without any evidence of tumor burden”.
